Assay results reported in publication PMC4351150 (Cancer immunology research, 2015).
Values joined by “and” are separate entries in the source; they are usually repeats but may differ in a detail not shown here. Equal entries are not always repeated.

Key:
[1] = test system: CD8^+ T cells of HLA-A*02:01-expressing post-SCT AML patients; experiment: PE-peptide/HLA-A*02:01 tetramer flow cytometry of post-SCT AML patient PBMCs; assay type: cell-based
HLA-A*02:01 = HLA-A*02:01 (Homo sapiens, UniProt P04439, D140Y/D185E/D98H/E176V/E277Q/G131W/G231S/I119V/I121R/I166T/I218V/L300P/L318F/N151K/N90K/P208A/P217A/Q86G/Q94H/R138H/R169H/T345S); experiment: iTopia binding affinity assay
[2] = test system: CD8^+ TCRβ repertoire of Patient 5; experiment: Bulk TCRβ repertoire sequencing: mapping of tetramer-associated TCRβ clonotypes; set-up: species or system human; conditions: for total share of tetramer-associated TCRβ clonotypes in TCRβ repertoire: Patient 5, sample 2 months later, 3×10^6 CD8^+ cells, Illumina HiSeq
CD8^+ cells = assay type: cell-based; conditions: UNC-CDK4-1-pulsed T2 cells as stimulators; % of CD8^+ cells (Supplementary Figure 1)

Sequence | tetramer frequency, % of CD8^+ cells (positive patients) ([1]; 3 of 6 post-SCT AML patients, PE-UNC-CDK4-1/HLA-A*02:01 tetramer, 4°C, 25 minutes, threshold >0.01%) [%] | tetramer^+ T-cell population frequency in Patient 5 ([1]; Patient 5, day +567 post-SCT, CMV seropositive, not viremic) [%] | binding affinity to HLA-A*02:01 (HLA-A*02:01) | total share of tetramer-associated TCRβ clonotypes in TCRβ repertoire [2] | mean enrichment ratio of tetramer-associated clonotypes ([2]; clonotype frequency in tetramer^+ gate / clonotype frequency in bulk repertoire, Patient 5, t-test p < 0.0001 between antigens) | CD8^+ cells specific for UNC-CDK4-1 (CD8^+ cells) [%]
ALTPVVVTL [UNC-CDK4-1] | > 0.01 | 0.04 | high affinity to HLA-A*02:01 | > 17% and 17.1% | 1.04×10^1 | 0.2
NLVPMVATV [pp65NLV, reference compound] | – | – | – | 0.002% | – | –
